According to patent US20260109707A1, “HETEROBIFUNCTIONAL COMPOUNDS AND METHODS OF TREATING DISEASE” (Halda Therapeutics OpCo. Inc., priority 2022, published 2026):
Read-outs that look alike come from different tables or passages of the source.

Columns and labels:
VCaP cells = test: Cellular growth inhibition assay for VCaP cells (CellTiter-Glo, 72 hours); type: cell-based, human
Method: VCaP cells were purchased from American Type Cell Culture (ATCC Cat #CRL2876) and then seeded on poly-D-lysine coated, black clear-bottom 384-well plates at 5000/well in 25 μL Dulbecco's Modified Eagle Medium (DMEM) supplemented with 10% w/w Fetal bovine serum (FBS) and 1% w/w Pen-Strep. Pen-Strep is a commercially available mixture of penicillin G and streptomycin, which is used in mammalian cell culture media to prevent bacterial contamination. Dulbecco's Modified Eagle Medium (DMEM) supplemented with 10% w/w fetal bovine serum (FBS) and 1% w/w Pen-Strep is herein referred to as Treatment Medium. Following seeding of cells in the plates, the plates were spun at 300×g for 30 seconds, then equilibrated to room temperature for 30 minutes, and then deposited in a humidified tissue culture incubator maintained at 37° C. with 5% C0-2.
(§1) At 24 hours after seeding of the cells, dilutions of test compound were prepared in DMSO and dissolved in Treatment Medium, to achieve a final DMSO concentration of 0.5% w/w, thereby providing the Test Compound Solution. A 25 μL aliquot of the Test Compound Solution was added to cells in the well plates. An equal volume of a solution containing DMSO and Treatment Medium was used as a negative control. Following treatment of cells with Test Compound Solution or said equal volume of a solution containing DMSO and Treatment Medium, the plates were spun at 300×g for 30 seconds, and then left in an incubator for 72 hours.
(§2) At the end of the treatment duration, cell viability was quantified with CellTiter-Glo 2.0 reagent (Promega Cat #G9243). For this purpose, plates were equilibrated to room temperature for 30 minutes, and then 25 μL of CellTiter-Glo 2.0 reagent was added to cells in the plate wells. Plates were then agitated on a shaker for two minutes at 500 rpm and subsequently incubated at room temperature for 10 minutes. Following incubation, the plates were spun at 3000×g for 30 seconds, then sealed with an optical adhesive cover, and luminescence readings were measured with an EnVision Plate Reader.
(§3) Data was normalized using zero luminescence for baseline. A four-parameter non-linear regression curve fit was applied to dose-response data in GraphPad Prism data analysis software to determine the half-maximal growth inhibitory concentration (GI50) for each test compound.

[1] = test system: T-Rex 293 cell line SC3 cells having increased expression of androgen receptor protein due to exposure to doxycycline; test: Cellular growth inhibition assay, T-Rex 293 SC3 cells with doxycycline (CellTiter-Glo, 72 hours); type: cell-based; conditions: T-Rex 293 SC3 cells with increased androgen receptor expression due to doxycycline (10 ng/mL)
Method: (§4) The following types of cells were prepared for this experiment: (i) a T-Rex 293 cell line having increased expression of androgen receptor protein due to exposure to doxycycline and (ii) a T-Rex 293 cell line lacking increased expression of androgen receptor protein. Ability of the test compounds to inhibit proliferation of the foregoing cell types was evaluated according to the procedures set forth below.
(§5) The doxycycline-inducible androgen receptor protein expressing cell line was established using the following protocol: T-Rex 293 cells were purchased from Invitrogen (Cat #R71007) and transfected using Lipofectamine 2000 with the wild-type androgen receptor protein sequence cloned into the pcDNA4/TO vector. Transfected cells were selected using 400 μg/mL Zeocin (Invitrogen Cat #R25001). Following selection, single clones were raised and maintained in Dulbecco's Modified Eagle Medium (DMEM) supplemented with 10% w/w Tetracycline-free fetal bovine serum (FBS) and 250 μg/mL Zeocin. Clones were analyzed for expression of androgen receptor protein in the presence and absence of 10 ng/mL doxycycline (Sigma Cat #D9891), and a single doxycycline-inducible clone (hereinafter “SC3”) was selected for use in downstream assays.
(§6) The SC3 cells were seeded on poly-D-lysine coated, black clear-bottom 384-well plates at 2500/well, in 25 μL Phenol Red Free Dulbecco's Modified Eagle Medium (DMEM) supplemented with 10% w/w charcoal-dextran treated fetal bovine serum (FBS) and 1% w/w pen-strep, with or without 10 ng/mL doxycycline. Pen-Strep is a commercially available mixture of penicillin G and streptomycin, which is used in mammalian cell culture media to prevent bacterial contamination. Phenol Red Free Dulbecco's Modified Eagle Medium (DMEM) supplemented with 10% w/w charcoal-dextran treated fetal bovine serum (FBS) and 1% w/w pen-strep, with or without 10 ng/mL doxycycline is herein referred to as Treatment Medium. Following seeding of cells in the plates, the plates were spun at 300×g for 30 seconds, then equilibrated to room temperature for 30 minutes, and then deposited in a humidified tissue culture incubator maintained at 37° C. with 5% CO2.
as §1, §2, §3

[2] = test system: T-Rex 293 cell line SC3 cells lacking increased expression of androgen receptor protein; test: Cellular growth inhibition assay, T-Rex 293 SC3 cells without doxycycline (CellTiter-Glo, 72 hours); type: cell-based; conditions: T-Rex 293 cell line SC3 cells not exposed to doxycycline (lacking increased androgen receptor expression)
Method: as §4, §5, §6, §1, §2, §3

SMILES	GI50 (VCaP cells; Homo sapiens, VCaP, 72 h) [nM]	GI50 ([1]; 72 h) [nM]	GI50 ([2]; 72 h) [nM]	GI50 [1] [nM]	GI50 [2] [nM]	GI50 (VCaP cells) [nM]
Cc1sc2c(c1C)C(c1ccc(NC[C@H]3CC[C@H](CNc4ncc(C(=O)N[C@H]5CC[C@H](Oc6ccc(C#N)c(Cl)c6)CC5)cn4)CC3)cc1)=NC(Cc1ncco1)c1nnc(C)n1-2 (some centres unmarked) [I-807]	< 500	< 500	< 500			
Cc1sc2c(c1C)C(c1ccc(NC3CC4CCCC(C3)N4c3ncc(C(=O)N[C@H]4CC[C@H](Oc5ccc(C#N)c(Cl)c5)CC4)cn3)cc1)=NC(Cc1ncco1)c1nnc(C)n1-2 (some centres unmarked) [I-799]	< 500			< 500	> 3000	
COCC[C@@H]1N=C(c2ccc(OC3CC4(CCCN(c5ccc(C(=O)N[C@H]6CC[C@H](Oc7ccc(C#N)c(Cl)c7)CC6)nn5)C4)C3)cc2)c2c(sc(C)c2C)-n2c(C)nnc21 (some centres unmarked) [I-662]	< 500	< 500	500 to 1500			
Cc1sc2c(c1C)C(c1cccc(OC3CCN(c4ccc(C(=O)N[C@H]5CC[C@H](Oc6ccc(C#N)c(Cl)c6)CC5)nn4)CC3)c1)=N[C@@H](C)c1nnc(C)n1-2 [I-680]	< 500	< 500	> 3000			
CCNC(=O)C[C@@H]1N=C(c2ccc(N(C)C3CN(c4ccc(C(=O)N[C@H]5CC[C@H](Oc6ccc(C#N)c(Cl)c6)CC5)nn4)C3)cc2)c2c(sc(C)c2C)-n2c(C)nnc21 [I-65]	500 to 1500	< 500	500 to 1500			
Cc1sc2c(c1C)C(c1ccc(C#CC3CC4(C3)CN(c3ccc(C(=O)N[C@H]5CC[C@H](Oc6ccc(C#N)c(Cl)c6)CC5)nn3)C4)cc1)=NC(C(F)(F)F)c1nnc(C)n1-2 (some centres unmarked) [I-723]	< 500			> 3000	> 3000	
COC[C@@H]1N=C(c2ccc(C3CCC4(CCCN(c5ccc(C(=O)N[C@H]6CC[C@H](Oc7ccc(C#N)c(Cl)c7)CC6)nn5)C4)CC3)cc2)c2c(sc(C)c2C)-n2c(C)nnc21 (some centres unmarked) [I-654]	< 500	< 500			> 3000	
Cc1sc2c(c1C)C(c1ccc(N3CCC4(CCN(c5ccc(C(=O)N[C@H]6CC[C@H](Oc7ccc(C#N)c(Cl)c7)CC6)nn5)C4)C3)cc1F)=N[C@@H](C)c1nnc(C)n1-2 (some centres unmarked) [I-746]	< 500			< 500	500 to 1500	
COCC[C@@H]1N=C(c2ccc(N3CCC4(CCN(c5ccc(C(=O)N[C@H]6CC[C@H](Oc7ccc(C#N)c(Cl)c7)CC6)nn5)CC4)C3)cc2)c2c(sc(C)c2C)-n2c(C)nnc21 [I-600]	> 3000	< 500	< 500			
Cc1sc2c(c1C)C(c1ccc(N3C[C@@]4(C)CN(c5ccc(C(=O)N[C@H]6CC[C@H](Oc7ccc(C#N)c(Cl)c7)CC6)nn5)C[C@@]4(C)C3)cc1)=N[C@@H](Cc1ncco1)c1nnc(C)n1-2 [I-826, 6-[(3aS,6aR)-3a,6a-dimethyl-2-[4-[(9S)-4,5,13-trimethyl-9-(oxazol-2-ylmethyl)-3-thia-1,8,11,12-tetrazatricyclo[8.3.0.02,6]trideca-2(6),4,7,10,12-pentaen-7-yl]phenyl]-1,3,4,6-tetrahydropyrrolo[3,4-c]pyrrol-5-yl]-N-[4-(3-chloro-4-cyano-phenoxy)cyclohexyl]pyridazine-3-carboxamide]	< 500	< 500	< 500			
Cc1sc2c(c1C)C(c1ccc(N3CCC(CCc4ccc(C(=O)N[C@H]5CC[C@H](Oc6ccc(C#N)c(Cl)c6)CC5)nn4)CC3)cc1)=N[C@@H](C)c1nnc(C)n1-2 [I-596]	< 500	< 500	< 500			
Cc1sc2c(c1C)C(c1ccc(N3CC(C4CCN(c5ccc(C(=O)N[C@H]6CC[C@H](Oc7ccc(C#N)c(Cl)c7)CC6)nn5)CC4)C3)cc1)=NCc1nnc(C)n1-2 [I-451]	500 to 1500	< 500	> 3000			
Cc1sc2c(c1C)C(c1ccc(N3CC4(CC(Cc5ccc(C(=O)N[C@H]6CC[C@H](Oc7ccc(C#N)c(Cl)c7)CC6)nn5)C4)C3)cc1)=NC(C(F)(F)F)c1nnc(C)n1-2 (some centres unmarked) [I-725]				< 500	> 3000	< 500
Cc1sc2c(c1C)C(c1ccc(NCCC3CCCN(c4ncc(C(=O)N[C@H]5CC[C@H](Oc6ccc(C#N)c(Cl)c6)CC5)cn4)C3)cc1)=NC(Cc1ncco1)c1nnc(C)n1-2 (some centres unmarked) [I-800]	< 500	< 500	< 500			
Cc1sc2c(c1C)C(c1ccc(C#CC3CC4(CCCN(c5ccc(C(=O)N[C@H]6CC[C@H](Oc7ccc(C#N)c(Cl)c7)CC6)nn5)C4)C3)cc1)=NC1(CC1)c1nnc(C)n1-2 (some centres unmarked) [I-445]	< 500		> 3000			
Cc1sc2c(c1C)C(c1ccc(OC3CC(CC4CCN(c5ccc(C(=O)N[C@H]6CC[C@H](Oc7ccc(C#N)c(Cl)c7)CC6)nn5)CC4)C3)cc1)=N[C@@H](C)c1nnc(C)n1-2 (some centres unmarked) [I-544]				< 500	> 3000	< 500
C#Cc1ccc(O[C@H]2CC[C@H](NC(=O)c3ccc(N4CCC(C5CN(c6ccc(C7=NC8(CC8)c8nnc(C)n8-c8sc(C)c(C)c87)nc6)C5)CC4)nn3)CC2)cc1Cl [I-516]	> 3000	< 500	> 3000			
Cc1sc2c(c1C)C(c1cccc(OCC3CCN(c4ccc(C(=O)N[C@H]5CC[C@H](Oc6ccc(C#N)c(Cl)c6)CC5)nn4)CC3)c1)=N[C@@H](C)c1nnc(C)n1-2 [I-681]	< 500	> 3000	> 3000			
Cc1sc2c(c1C)C(c1ccc(N3CCC4(CCCN(c5ccc(C(=O)N[C@H]6CC[C@H](Oc7ccc(C#N)c(Cl)c7)CC6)nn5)C4)CC3)nc1)=NCc1nnc(C)n1-2 [I-476]	< 500	< 500	> 3000			
Cc1sc2c(c1C)C(c1ccc(CC3CCC4(CCCN(c5ccc(C(=O)N[C@H]6CC[C@H](Oc7ccc(C#N)c(Cl)c7)CC6)nn5)C4)C3)cc1)=N[C@@H](C)c1nnc(C)n1-2 (some centres unmarked) [I-583]				< 500	< 500	1500 to 3000
Cc1sc2c(c1C)C(c1ccc(N3CCC4(CCN(c5ccc(C(=O)N[C@H]6CC[C@H](Oc7ccc(C#N)c(Cl)c7)CC6)nn5)C4)C3)cc1)=N[C@@H](C)c1nnc(C)n1-2 (some centres unmarked) [I-512]	< 500		< 500			
Cc1sc2c(c1C)C(c1ccc(N3C[C@@H]4CN(c5ccc(C(=O)N[C@H]6CC[C@H](Oc7ccc(C#N)c(Cl)c7)CC6)nn5)C[C@H]4C3)cc1)=N[C@@H](C)c1nnc(C)n1-2 [I-677]	< 500	< 500				
Cc1sc2c(c1C)C(c1ccc(CC3CC(OC4CCN(c5ccc(C(=O)NC6CCC(Oc7ccc(C#N)c(Cl)c7)CC6)nn5)CC4)C3)cc1)=NC(C)c1nnc(C)n1-2 (centres unmarked) [I-588]	< 500					
COC[C@@H]1N=C(c2ccc(OC3CC4(CCCN(c5ccc(C(=O)N[C@H]6CC[C@H](Oc7ccc(C#N)c(Cl)c7)CC6)nn5)C4)C3)cc2)c2c(sc(C)c2C)-n2c(C)nnc21 (some centres unmarked) [I-693]	< 500		< 500			
COC[C@@H]1N=C(c2ccc(C3CCC4(CC3)CCN(c3ccc(C(=O)N[C@H]5CC[C@H](Oc6ccc(C#N)c(Cl)c6)CC5)nn3)C4)cc2)c2c(sc(C)c2C)-n2c(C)nnc21 (some centres unmarked) [I-601]	< 500	< 500				
